The results in this text go back to US7485750B2, “Hydroxamic acid derivatives and the preparation method thereof” (Amorepacific Corporation, priority 2005, dated 2009).

The subject of one test is mice. In words: Contraction of skin pores in mice after topical application. The class given is in vivo. The note with it: 0.5 ml of 1% solution in 1,3-butylene glycol:ethanol=7:3 applied for 1 day, back biopsied 24 hours later, control group 65. The protocol:
The compounds of Examples 1-24 were dissolved in solvent (1,3-butylene glycol:ethanol=7:3) to give 1% solution of test samples. To forty-six (46) mice, 0.5 ml of the test sample solution was applied for 1 day, 24 hours later, their back part was biopsied. The epidermis was separated, then soaked in 0.5% acetic acid, then fixed in 10% formalin, and cut vertically by […]. After dying with hematoxylin and eosin, the size of skin pore was measured using Mechanical eyepiece micrometer.

Test [1] concerns Human keratinocyte (HaCaT) cell line. In words: Antioxidative effect: lipid peroxidation assay (MDA, 4-HNE) in t-BHP-treated HaCaT cells. The test is classed as cell-based. More on the design: unit not given here. The conditions noted are these: control without treatment = 100. The protocol: This example illustrates the antioxidative effect of the hydroxamic acid derivatives obtained in Examples 1 to 24, in comparison with tocoperol and EGCG (EpiGalloCatechin Gallate). Human keratinocyte (HaCaT) cell line was divided into 1.0×10^6 per 60 mm dish, and was cultured for 1 day at 37° C., 5% CO2, using DMEM (FBS 10%) medium containing penicillin/streptomycin, and then was treated with 10^−4 mol % of hydroxamic acid derivatives. The same treatment was performed with tocoperol and EGCG, as positive controls, of the same concentration. The next day, HaCaT cells were treated with 4 mM of BHP (t-butyl hydroperoixe), and were cultured for 4 hours at 37° C., 5% CO2, and the cells were obtained. Lysis of the cells was performed on the cells by way of repeating the freeze/thawing process. The following experiment was performed according to the method presented in the assay kit.
Cabiochem Lipid peroxidation assay kit (Cat. No. 437634) was used as reagent in the present invention, and lipid peroxidation was measured using the principle that peroxidation products of ester which relate to long chain unsaturated fatty acid, such as malondialdehyde (MDA), and 4-hydroxyalkenal, i.e., 4-hydroxy-2(E)-nonenal (4-HNE), react with the reagent to form a stable compound at 586 nm.

In a further test the test system is Human fibroblasts. In words: Collagen biosynthesis: procollagen type (I) ELISA in human fibroblasts. The test is classed as cell-based. The conditions noted are these: 10^-4 M in serum-free medium, 24 hours, relative value, control group = 100. The protocol: Human fibroblasts were seeded into 24-well plates at 1×10^5 cells per well and then cultured to 90% of growth. The fibroblastes were then cultured in serum-free DMEM for 24 hours and treated with 10^−4 M of the hydroxamic acid derivatives of Examples 1-24, tocoperol and EGCG, in serum-free medium, and then incubated in a CO2 incubator for 24 hours.
For each supernatant, procollagen production was measured with procollagen type (I) ELISA kit. The results are shown in Table 2, in which collagen biosynthesis was evaluated as a relative value, in consideration that the value of the control group with no material treated is 100.
A general note: In an ELISA, binding on a coated surface is turned into a signal by an enzyme label.

[2] abbreviates: HaCaT cells pretreated with 10^-4 mol % test material, next day 4 mM t-BHP for 4 hours, lipid peroxidation at 586 nm.

In the test on mice, `O=C(O[C@@H]1Cc2c(O)cc(O)cc2O[C@@H]1c1cc(O)c(O)c(O)c1)c1cc(O)c(O)c(O)c1` [EGCG, EpiGalloCatechin Gallate, reference compound] showed a Size of skin pore of 60 µm. The “MDA, HNE” value in test [1] (setting [2]) is recorded as 230. Besides, in the test with Human fibroblasts, the “Collagen biosynthesis (%)” value is listed as 120%.
Consider `COc1ccc(C(=O)Nc2ccc(C(=O)NO)cc2)cc1OC` [Example 1, N-[4-(N-hydroxycarbamoyl)phenyl][3,4-dimethoxyphenyl]carboxyamide], for which, in the test on mice, the Size of skin pore is 56 µm. Besides, the “MDA, HNE” value in test [1] (setting [2]) is recorded as 190. In the test on Human fibroblasts, the “Collagen biosynthesis (%)” value is listed as 123%.
On to `CCOc1ccc(C(=O)Nc2ccc(C(=O)NO)cc2)cc1OCC` [Example 2, N-[4-(N-hydroxycarbamoyl)phenyl][3,4-diethoxyphenyl]carboxyamide], for which, in the test with mice, the Size of skin pore was found to be 50 µm. Also, the “MDA, HNE” value in test [1] (setting [2]) is 200. Further, the “Collagen biosynthesis (%)” value with Human fibroblasts stood at 131%.
In the test with mice, `CC(C)Oc1ccc(C(=O)Nc2ccc(C(=O)NO)cc2)cc1OC(C)C` [Example 3, N-[4-(N-hydroxycarbamoyl)phenyl][3,4-diisopropoxyphenyl]carboxyamide] showed a Size of skin pore of 54 µm. The “MDA, HNE” value in test [1] (setting [2]) is reported as 211. Moreover, the “Collagen biosynthesis (%)” value in the test with Human fibroblasts was determined as 122%.
For `CCCOc1ccc(C(=O)Nc2ccc(C(=O)NO)cc2)cc1OCCC` [Example 4, N-[4-(N-hydroxycarbamoyl)phenyl][3,4-dipropoxyphenyl]carboxyamide] the same measures were 52 µm, 189 and 111%.
For the compound `CCCCOc1ccc(C(=O)Nc2ccc(C(=O)NO)cc2)cc1OCCCC` [Example 5, N-[4-(N-hydroxycarbamoyl)phenyl][3,4-dibutoxyphenyl]carboxyamide], the Size of skin pore in the test on mice was determined as 53 µm. In test [1] (setting [2]), the “MDA, HNE” value came out at 211. Besides, in the test with Human fibroblasts, the “Collagen biosynthesis (%)” value amounted to 121%.
`CC(C)(C)Oc1ccc(C(=O)Nc2ccc(C(=O)NO)cc2)cc1OC(C)(C)C` [Example 6, N-[4-(N-hydroxycarbamoyl)phenyl][3,4-di-tert-butoxyphenyl]carboxyamide]: the Size of skin pore with mice came to 54 µm. Moreover, in test [1] (setting [2]), the “MDA, HNE” value is recorded as 231. Besides, the “Collagen biosynthesis (%)” value in the test on Human fibroblasts was determined as 135%.
`COc1ccc(C(=O)Nc2ccc(C(=O)N(C)O)cc2)cc1OC` [Example 7, [4-((3,4-dimethoxyphenyl)carbonylamino)phenyl]-N-hydroxy-N-methyl carboxyamide] showed a Size of skin pore in the test with mice of 55 µm. In addition, the “MDA, HNE” value in test [1] (setting [2]) is 220. In addition, in the test with Human fibroblasts, the “Collagen biosynthesis (%)” value is 111%.
For the compound `CCOc1ccc(C(=O)Nc2ccc(C(=O)N(C)O)cc2)cc1OCC` [Example 8, [4-((3,4-diethoxyphenyl)carbonylamino)phenyl]-N-hydroxy-N-methyl carboxyamide], the Size of skin pore in the test on mice amounted to 50 µm. Further, in test [1] (setting [2]), the “MDA, HNE” value turned out to be 190. For the same compound, the “Collagen biosynthesis (%)” value in the test on Human fibroblasts turned out to be 112%.
On to `CC(C)Oc1ccc(C(=O)Nc2ccc(C(=O)N(C)O)cc2)cc1OC(C)C` [Example 9, [4-((3,4-diisopropoxyphenyl)carbonylamino)phenyl]-N-hydroxy-N-methyl carboxyamide], for which, in the test on mice, the Size of skin pore was determined as 51 µm. For the same compound, in test [1] (setting [2]), the “MDA, HNE” value was 187. In addition, in the test on Human fibroblasts, the “Collagen biosynthesis (%)” value is recorded as 123%.
The like results for `CCCOc1ccc(C(=O)Nc2ccc(C(=O)N(C)O)cc2)cc1OCCC` [Example 10, [4-((3,4-dipropoxyphenyl)carbonylamino)phenyl]-N-hydroxy-N-methyl carboxyamide] were, in that order, 52 µm, 140 and 126%.
For `CCCCOc1ccc(C(=O)Nc2ccc(C(=O)N(C)O)cc2)cc1OCCCC` [Example 11, [4-((3,4-dibutoxyphenyl)carbonylamino)phenyl]-N-hydroxy-N-methylcarboxyamide] the same measures were 56 µm, 198 and 121%.
The compound `CN(O)C(=O)c1ccc(NC(=O)c2ccc(OC(C)(C)C)c(OC(C)(C)C)c2)cc1` [Example 12, [4-((3,4-di-tert-butoxyphenyl)carbonylamino)phenyl]-N-hydroxy-N-methyl carboxyamide] gave a Size of skin pore in the test on mice of 54 µm. For the same compound, the “MDA, HNE” value in test [1] (setting [2]) was 176. The “Collagen biosynthesis (%)” value with Human fibroblasts was found to be 123%.
`COc1ccc(C(=O)Nc2ccc(CC(=O)NO)cc2)cc1OC` [Example 13, N-(4-((hydroxycarbamoyl)methyl)phenyl)-3,4-dimethoxy benzamide] showed a Size of skin pore in the test with mice of 55 µm. Further, the “MDA, HNE” value in test [1] (setting [2]) is on record as 150. For the same compound, in the test with Human fibroblasts, the “Collagen biosynthesis (%)” value was 111%.
Regarding `CCOc1ccc(C(=O)Nc2ccc(CC(=O)NO)cc2)cc1OCC` [Example 14, N-(4-((hydroxycarbamyl)methyl)phenyl)-3,4-diethoxy benzamide], the Size of skin pore in the test on mice was 50 µm. Further, the “MDA, HNE” value in test [1] (setting [2]) was 220. Further, in the test on Human fibroblasts, the “Collagen biosynthesis (%)” value came out at 121%.
`CC(C)Oc1ccc(C(=O)Nc2ccc(CC(=O)NO)cc2)cc1OC(C)C` [Example 15, N-(4-((hydroxycarbamoyl)methyl)phenyl)-3,4-diisopropoxy benzamide] gave a Size of skin pore in the test with mice of 51 µm. The “MDA, HNE” value in test [1] (setting [2]) came out at 213. Further, in the test on Human fibroblasts, the “Collagen biosynthesis (%)” value is 134%.
For the compound `CCCOc1ccc(C(=O)Nc2ccc(CC(=O)NO)cc2)cc1OCCC` [Example 16, N-(4-((hydroxycarbamoyl)methyl)phenyl)-3,4-dipropoxy benzamide], in the test with mice, the Size of skin pore came out at 52 µm. In addition, the “MDA, HNE” value in test [1] (setting [2]) turned out to be 199. For the same compound, in the test on Human fibroblasts, the “Collagen biosynthesis (%)” value amounted to 131%.
In turn, `CCCCOc1ccc(C(=O)Nc2ccc(CC(=O)NO)cc2)cc1OCCCC` [Example 17, N-(4-((hydroxycarbamoyl)methyl)phenyl)-3,4-dibutoxy benzamide] gave a Size of skin pore with mice of 56 µm. The “MDA, HNE” value in test [1] (setting [2]) came to 200. The “Collagen biosynthesis (%)” value with Human fibroblasts is 123%.
Regarding `CC(C)(C)Oc1ccc(C(=O)Nc2ccc(CC(=O)NO)cc2)cc1OC(C)(C)C` [Example 18, N-(4-((hydroxycarbamoyl)methyl)phenyl)-3,4-di-tert-butoxy benzamide], the Size of skin pore with mice was determined as 57 µm. Besides, in test [1] (setting [2]), the “MDA, HNE” value was found to be 232. The “Collagen biosynthesis (%)” value in the test on Human fibroblasts is on record as 122%.
The like results for `COc1ccc(C(=O)Nc2ccc(CC(=O)N(C)O)cc2)cc1OC` [Example 19] were, in that order, 54 µm, 212 and 142%.
With `CCOc1ccc(C(=O)Nc2ccc(CC(=O)N(C)O)cc2)cc1OCC` [Example 20], in the test on mice, the Size of skin pore worked out at 51 µm. For the same compound, the “MDA, HNE” value in test [1] (setting [2]) was 196. Also, in the test with Human fibroblasts, the “Collagen biosynthesis (%)” value is 123%.
For `CC(C)Oc1ccc(C(=O)Nc2ccc(CC(=O)N(C)O)cc2)cc1OC(C)C` [Example 21] the same measures were 55 µm, 190 and 121%.
`CCCOc1ccc(C(=O)Nc2ccc(CC(=O)N(C)O)cc2)cc1OCCC` [Example 22] displayed a Size of skin pore with mice of 52 µm. Moreover, the “MDA, HNE” value in test [1] (setting [2]) came to 188. The “Collagen biosynthesis (%)” value in the test with Human fibroblasts is 122%.
Regarding `CCCCOc1ccc(C(=O)Nc2ccc(CC(=O)N(C)O)cc2)cc1OCCCC` [Example 23], the Size of skin pore in the test on mice came out at 51 µm. Further, the “MDA, HNE” value in test [1] (setting [2]) is reported as 188. Further, the “Collagen biosynthesis (%)” value with Human fibroblasts stood at 123%.
With `CN(O)C(=O)Cc1ccc(NC(=O)c2ccc(OC(C)(C)C)c(OC(C)(C)C)c2)cc1` [Example 24], in the test with mice, the Size of skin pore turned out to be 50 µm. Also, in test [1] (setting [2]), the “MDA, HNE” value was found to be 197. In addition, the “Collagen biosynthesis (%)” value in the test on Human fibroblasts stood at 131%.
As to `Cc1c(C)c2c(c(C)c1O)CC[C@@](C)(CCC[C@H](C)CCC[C@H](C)CCCC(C)C)O2` [Tocoperol, tocoperol, reference compound], the Size of skin pore in the test with mice was 64 µm. Besides, the “MDA, HNE” value in test [1] (setting [2]) was found to be 250. Besides, the “Collagen biosynthesis (%)” value in the test with Human fibroblasts came to 113%.
For the compound `CC(C)(C)OO` [t-BHP, t-butyl hydroperoixe, reference compound], the “MDA, HNE” value in test [1] (HaCaT cells treated with 4 mM t-BHP alone for 4 hours) is 320.
